This note sets out measurements from US20250049930A1, “PROTAC MOLECULES TARGETING FOXP3 AND USES THEREOF” (CEDARS-SINAI MEDICAL CENTER, priority 2022, published 2025).

“Also recorded” adds a separate entry of the source. No end group written: not given here.

The experiment has as its system RENCA tumors. Nature of the experiment: Subcutaneous RENCA tumor growth in mice. In kind it is in vivo. The settings on record: s.c. RENCA in Balb/C mice, i.p. treatment from day 10, vs saline. How it is done: Mice: Balb/C mice, 5-8 weeks old, were purchased from Jackson laboratory (Ellsworth, Maine) and housed under pathogen free conditions. All experiments involving animals followed federal and state standards, which include the federal Animal Welfare Act and the NIH guide for the care and use of laboratory animals. The RENCA tumors were generated by subcutaneously injecting 2×10^5 tumor cells into the frank. The day tumor cells were injected was considered day 0. PF (0.1 mmol), PC (0.1 mmol) or P60 (100 ug) was administered i.p. twice a week starting on day 10; αPD1 (200 μg) was administered i.p. twice a week starting on day 5; temsirolimus (15 μg) was administered i.p. every other day, starting on day 10. All drugs were administered throughout the experimental course unless indicated. CD8 cells were depleted with a one-time αCD8 (200 μg) i.p. administration on day 2.
In cancer, Tregs can suppress the antitumor immune response, which is primarily mediated by CD8+ lymphocytes. Therefore, PF was administered to mice to enhance antitumor immunity and suppress growth of syngeneic mouse kidney cancer, which is considered an immunoresponsive cancer type. Mice tumors were established by injecting RENCA cells subcutaneously in the flank of Balb/C mice (5-7 mice per group). RENCA cells were injected subcutaneously to establish palpable tumors, and 10 days later mice were treated i.p., twice a week throughout the experiment, with PF, PC, P60 or Saline (FIG. 3D). Pomalidomide conjugated to (PEG)4 (PROTAC-control; PC) and P60 served as controls. […] In summary, PF decreased the immunosuppressive function of Tregs in vitro and decreased tumor growth in mice. […]
All immunotherapies, particularly when multi-drug combinations are involved, may have off-target effects. For example, drugs may have direct effects on the tumor, inhibiting tumor proliferation or inducing tumor apoptosis. Mice tumors were established by injecting RENCA cell subcutaneously in the flank of Balb/C mice (6-8 mice per group). 10 days later, mice were treated with PF twice per week. CD8 lymphocytes were depleted with αCD8 administered i.p. 2 days after injection of tumor cells. Mice in indicated groups received i.p. αPD1, twice a week, starting day 5 (FIG. 5A). Mice in indicated groups received i.p. temsirolimus every other day for 14 days, starting on days 10 (FIG. 5B). Tumor growth was monitored in these groups. […]

As to `CO[C@H]1C[C@@H]2CC[C@@H](C)[C@@](O)(O2)C(=O)C(=O)N2CCCC[C@H]2C(=O)O[C@H]([C@H](C)C[C@@H]2CC[C@@H](OC(=O)C(C)(CO)CO)[C@H](OC)C2)CC(=O)[C@H](C)/C=C(\C)[C@@H](O)[C@@H](OC)C(=O)[C@H](C)C[C@H](C)/C=C/C=C/C=C/1C` [temsirolimus], the “tumor growth, single agent” value is “suppressed tumor growth”.

As to “RDFQSFRKMWPFFAM (not fully specified (some residues)) [P60]”, the “tumor growth, single agent” value is reported as “Only PF produced a decrease in tumor growth; also recorded: no effect on RENCA tumor growth”.
